Where a SMILES comes first, the peptide text is derived from it.

This is an account of results in PMC4999073 (PLoS ONE, 2016).

For one data set, the target named is Human Cat D (Homo sapiens, UniProt P07339). Particulars: 12.5 μM defensin, 125 nM Cat D (S:E 100), 0.1 M sodium citrate pH 3.5, 200 mM NaCl, 4 h, 30°C; RP-HPLC, 220 nm.
The next data set concerns the target Human Cat K (Homo sapiens, UniProt P43235). Particulars: 12.5 μM defensin, 125 nM Cat K (S:E 100), 0.1 M sodium acetate pH 5.5, 2 mM DTT, 0.01% Brij35, 4 h, 30°C; RP-HPLC, 220 nm.
The next data set addresses Human Cat S (Homo sapiens, UniProt P25774). Particulars: 12.5 μM defensin, 125 nM Cat S (S:E 100), 0.1 M sodium acetate pH 5.5, 2 mM DTT, 0.01% Brij35, 4 h, 30°C; RP-HPLC, 220 nm.
The next data set has as its target Human Cat H (Homo sapiens, UniProt P09668). Particulars: 12.5 μM defensin, 125 nM Cat H (S:E 100), 0.1 M sodium acetate pH 5.5, 2 mM DTT, 0.01% Brij35, 4 h, 30°C; RP-HPLC, 220 nm.
In the next data set the target is Human Cat B (Homo sapiens, UniProt P07858). Particulars: 12.5 μM defensin, 125 nM Cat B (S:E 100), 0.1 M sodium acetate pH 5.5, 2 mM DTT, 0.01% Brij35, 4 h, 30°C; RP-HPLC, 220 nm.
Data set [1] has as its target Human neutrophil elastase (HNE) (Homo sapiens, UniProt P08246). Particulars: 12.5 μM defensin, 125 nM HNE (S:E 100), 0.05 M HEPES pH 7.4, NP40 0.05%, 150 mM NaCl, 4 h, 30°C; RP-HPLC, 220 nm.
Description: (§4) Chromatograms were analyzed by running the ChromoQuest Chromatography Workstation (Thermo Fisher Scientific, Les Ulis, France).
For data set [2], the system named is trypsin. Particulars: 12.5 μM defensin, 125 nM trypsin (S:E 100), 0.1 M Tris/HCl pH 8.0, 50 mM CaCl2, 100 mM NaCl, 4 h, 30°C; RP-HPLC, 220 nm.
Description: as §4
Data set [3] has as its system Escherichia coli ATCC 25922. Particulars: radial diffusion assay, n = 3. The source says:
(§1) The reaction mixture without defensin added was used as negative control and the defensin alone was used as positive control. […] The strain Salmonella enterica serovar Typhimurium LT2 was kindly provided by Dr Benoît Doublet (INRA, UMR1282 ISP, Nouzilly, France). The strain Streptococcus salivarius was a clinical strain isolated from blood culture, kindly provided by Dr Christine Delorme (INRA, UMR1319 MICALIS, Jouy en Josas, France).
(§2) A Mann-Whitney non-parametric U test was used to compare the minimal inhibitory concentration of each defensin before and after incubation with cathepsins.

For data set [4], the system named is Staphylococcus aureus ATCC 29740. Conditions: radial diffusion assay; defensin alone or reaction mixture after 4 h at 30°C with cathepsin (S:E molar ratio 100), 0.1 M sodium acetate pH 5.5, 2 mM DTT, 0.01% Brij35; mean ± SEM, n = 3; NI: no inhibition detected.
Text: as §1, §2

Data set [5] concerns chymotrypsin. Particulars: 12.5 μM defensin, 125 nM chymotrypsin (S:E 100), 0.1 M Tris/HCl pH 7.8, 20 mM CaCl2, 4 h, 30°C; RP-HPLC, 220 nm.
Description: as §4
The target of another data set is Human Cat L (Homo sapiens, UniProt P07711). Conditions: 12.5 μM defensin, 125 nM Cat L (S:E 100), 0.1 M sodium acetate pH 5.5, 2 mM DTT, 0.01% Brij35, 4 h, 30°C; RP-HPLC, 220 nm.
The test system of data set [6] is Streptococcus salivarius JIM 8780. Kind of data set: Radial diffusion antibacterial assay (MIC). It counts as cell-based. Conditions: Table 3, mean +/- SEM, n = 3. How it is done:
(§3) The antibacterial activity of purified AvBD2 and AvBD7 and of each enzyme-AvBD reaction mixture was measured by radial diffusion assay as described previously, allowing the determination of the minimal inhibitory concentration (MIC) against Staphylococcus aureus ATCC 29740 and against Escherichia coli ATCC 25922 as representative Gram-positive and Gram-negative strains, respectively. The reaction mixture without defensin added was used as negative control and the defensin alone was used as positive control. For AvBD7 and its major degradation product, MIC was determined towards three Gram-negative and three Gram-positive bacterial strains, respectively, including Pseudomonas aeruginosa ATCC 25010, Escherichia coli ATCC 25922, Salmonella enterica serovar Typhimurium LT2 ATCC 700720, Listeria monocytogenes strain EGD, Staphylococcus aureus ATCC 29740, and Streptococcus salivarius JIM 8780. The strain Salmonella enterica serovar Typhimurium LT2 was kindly provided by Dr Benoît Doublet (INRA, UMR1282 ISP, Nouzilly, France). The strain Streptococcus salivarius was a clinical strain isolated from blood culture, kindly provided by Dr Christine Delorme (INRA, UMR1319 MICALIS, Jouy en Josas, France).

The test system of data set [7] is Pseudomonas aeruginosa ATCC 25010. Nature of the data set: Radial diffusion antibacterial assay (MIC). Particulars: Table 3, mean +/- SEM, n = 3. Format: cell-based. How it is done:
as §3

In data set [8] the test system is Listeria monocytogenes strain EGD. Nature of the data set: Radial diffusion antibacterial assay (MIC). Format: cell-based. Particulars: Table 3, mean +/- SEM, n = 3. How it is done:
as §3

The subject of data set [9] is Salmonella enterica serovar Typhimurium LT2 ATCC 700720. Kind of data set: Radial diffusion antibacterial assay (MIC). Particulars: Table 3, mean +/- SEM, n = 3. Format: cell-based. As for the experimental part: as §3
A further data set has as its system Cat H. Kind of data set: 125 nM Cat H in 0.1 M sodium acetate buffer, pH 5.5 containing 2 mM DTT and 0.01% Brij35. Particulars: human, 30°C, up to 4 h.
Data set [10] has as its system Human neutrophil elastase (HNE). Kind of data set: 125 nM HNE in 0.05 M HEPES buffer, pH 7.4, NP40 0.05% 150 mM NaCl. Particulars: 30°C, up to 4 h.
In data set [11] the test system is trypsin. Nature of the data set: 125 nM trypsin in 0.1 M Tris/HCl buffer, pH 8.0, 50 mM CaCl2, 100 mM NaCl. Conditions: 30°C, up to 4 h.
The subject of data set [12] is chymotrypsin. Kind of data set: 125 nM chymotrypsin in 0.1 M Tris/HCl buffer, pH 7.8, 20 mM CaCl2. Conditions: 30°C, up to 4 h.
A further data set has as its system Cat D. Kind of data set: 125 nM Cat D in 0.1 M sodium citrate buffer, pH 3.5, 200 mM NaCl. Particulars: human, 30°C, up to 4 h.
The test system of the next data set is Cat S. Nature of the data set: 125 nM Cat S in 0.1 M sodium acetate buffer, pH 5.5 containing 2 mM DTT and 0.01% Brij35. Particulars: human, 30°C, up to 4 h.
Another data set concerns Cat L. Nature of the data set: 125 nM Cat L in 0.1 M sodium acetate buffer, pH 5.5 containing 2 mM DTT and 0.01% Brij35. Particulars: human, 30°C, up to 4 h.
The subject of the next data set is Cat B. Kind of data set: 125 nM Cat B in 0.1 M sodium acetate buffer, pH 5.5 containing 2 mM DTT and 0.01% Brij35. Conditions: human, 30°C, up to 4 h.
For the next data set, the system named is Cat K. Nature of the data set: 125 nM Cat K in 0.1 M sodium acetate buffer, pH 5.5 containing 2 mM DTT and 0.01% Brij35. Particulars: human, 30°C, up to 4 h.

Human Cat D, sequence (P07339 65-412): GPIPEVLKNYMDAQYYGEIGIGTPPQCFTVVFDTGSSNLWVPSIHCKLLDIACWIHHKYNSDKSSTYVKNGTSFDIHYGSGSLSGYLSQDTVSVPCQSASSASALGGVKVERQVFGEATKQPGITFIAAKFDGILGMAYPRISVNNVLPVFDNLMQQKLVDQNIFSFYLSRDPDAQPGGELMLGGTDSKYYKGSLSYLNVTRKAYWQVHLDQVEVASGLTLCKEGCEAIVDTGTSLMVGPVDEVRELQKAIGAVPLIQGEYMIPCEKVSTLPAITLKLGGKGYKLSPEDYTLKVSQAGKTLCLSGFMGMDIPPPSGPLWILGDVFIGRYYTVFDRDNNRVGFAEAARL
Human Cat H, sequence (P09668 98-335): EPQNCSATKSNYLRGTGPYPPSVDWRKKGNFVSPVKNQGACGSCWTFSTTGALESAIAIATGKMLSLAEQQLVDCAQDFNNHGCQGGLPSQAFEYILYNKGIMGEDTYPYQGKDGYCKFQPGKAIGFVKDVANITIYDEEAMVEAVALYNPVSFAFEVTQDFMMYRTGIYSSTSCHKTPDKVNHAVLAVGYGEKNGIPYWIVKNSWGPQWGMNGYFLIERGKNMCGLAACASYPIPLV
Human Cat S, sequence (P25774 115-331): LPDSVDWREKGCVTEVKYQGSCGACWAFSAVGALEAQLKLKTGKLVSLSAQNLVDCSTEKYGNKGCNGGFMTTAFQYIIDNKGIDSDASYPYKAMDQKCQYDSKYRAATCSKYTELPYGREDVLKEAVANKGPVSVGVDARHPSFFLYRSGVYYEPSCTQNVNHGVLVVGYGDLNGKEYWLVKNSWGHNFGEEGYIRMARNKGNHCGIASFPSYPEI
Human Cat L, sequence (P07711 114-333): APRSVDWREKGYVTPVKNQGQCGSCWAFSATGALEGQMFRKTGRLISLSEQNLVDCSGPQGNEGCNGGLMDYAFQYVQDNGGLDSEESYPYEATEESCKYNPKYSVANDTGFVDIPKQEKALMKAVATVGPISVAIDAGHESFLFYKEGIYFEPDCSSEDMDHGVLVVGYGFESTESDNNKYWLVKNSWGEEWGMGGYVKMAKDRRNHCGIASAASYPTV
Human neutrophil elastase (HNE) (Homo sapiens, UniProt P08246), sequence (P08246 30-267): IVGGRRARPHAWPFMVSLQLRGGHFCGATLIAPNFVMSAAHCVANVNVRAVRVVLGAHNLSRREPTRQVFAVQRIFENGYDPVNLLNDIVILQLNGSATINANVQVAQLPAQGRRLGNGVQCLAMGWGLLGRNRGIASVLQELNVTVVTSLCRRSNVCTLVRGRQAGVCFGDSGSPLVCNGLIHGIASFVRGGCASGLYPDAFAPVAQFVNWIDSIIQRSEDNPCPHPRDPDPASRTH
Human Cat K, sequence (P43235 115-329): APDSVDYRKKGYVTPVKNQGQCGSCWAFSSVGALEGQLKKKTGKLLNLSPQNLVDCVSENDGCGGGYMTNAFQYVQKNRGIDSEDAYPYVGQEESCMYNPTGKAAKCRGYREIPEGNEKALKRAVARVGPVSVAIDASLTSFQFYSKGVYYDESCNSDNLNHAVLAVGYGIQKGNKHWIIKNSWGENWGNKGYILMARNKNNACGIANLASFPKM
Description for Human Cat D: as §4

Turning to `CC[C@H](C)[C@@H]1NC(=O)[C@H](CC(C)C)NC(=O)[C@H](Cc2c[nH]cn2)NC(=O)[C@H](CO)NC(=O)[C@@H]2CCCN2C(=O)[C@@H]2CSSC[C@@H](C(=O)N[C@@H](CCCCN)C(=O)N[C@@H](Cc3c[nH]c4ccccc34)C(=O)N3CCC[C@H]3C(=O)N[C@@H](Cc3c[nH]c4ccccc34)C(=O)N[C@@H](CC(N)=O)C(=O)N[C@@H](C)C(=O)O)NC(=O)[C@@H]3CSSC[C@H](NC(=O)[C@H](Cc4ccccc4)NC(=O)[C@@H](N)CC(C)C)C(=O)N[C@@H](CCCCN)C(=O)NCC(=O)NCC(=O)N[C@@H](CO)C(=O)N[C@@H](CSSC[C@H](NC(=O)[C@H](CO)NC(=O)CNC(=O)[C@H](C(C)C)NC(=O)[C@H](CCCCN)NC1=O)C(=O)N[C@@H](Cc1ccccc1)C(=O)NCC(=O)N[C@@H](Cc1ccccc1)C(=O)N[C@@H](CCCNC(=N)N)C(=O)N[C@@H](CO)C(=O)N3)C(=O)N[C@@H](Cc1c[nH]cn1)C(=O)N[C@@H](Cc1ccccc1)C(=O)NCC(=O)NCC(=O)N2` [AvBD2] (HELM PEPTIDE1{L.F.C.K.G.G.S.C.H.F.G.G.C.P.S.H.L.I.K.V.G.S.C.F.G.F.R.S.C.C.K.W.P.W.N.A}$PEPTIDE1,PEPTIDE1,3:R3-29:R3|PEPTIDE1,PEPTIDE1,8:R3-23:R3|PEPTIDE1,PEPTIDE1,13:R3-30:R3$$$V2.0), the “Hydrolysis by Cat D” value on Human Cat D was “did not cleave”. Moreover, the “Hydrolysis by Cat K” value at Human Cat K is recorded as “totally digested”. Also, at Human Cat S, the “Hydrolysis by Cat S” value was “partially degraded”. In addition, the “Hydrolysis by Cat H” value at Human Cat H is “resistant to hydrolysis”. The “Hydrolysis by Cat B” value at Human Cat B is “partially degraded”. The “Hydrolysis by neutrophil elastase” value in data set [1] is “did not cleave”. In addition, the Hydrolysis by trypsin entry in the data set with trypsin [2] is on record as “did not cleave”. For the same compound, in data set [3] (defensin alone or reaction mixture after 4 h at 30°C with cathepsin (S:E molar ratio 100), 0.1 M sodium acetate pH 5.5, 2 mM DTT, 0.01% Brij35, mean ± SEM, NI: no inhibition detected), the “MIC (μM) E. Coli” value worked out at 3 ± 2 µM. The “MIC (μM) S. aureus” value in [4] is 1 ± 0 µM. For the same compound, the Hydrolysis by chymotrypsin entry in the data set on chymotrypsin [5] is reported as “did not cleave”. Also, the “Hydrolysis by Cat L” value at Human Cat L is given as “partially degraded”.

Consider `CC[C@H](C)[C@H](N)C(=O)N1CCC[C@H]1C(=O)N[C@@H](CCCNC(=N)N)C(=O)N1CCC[C@H]1C(=O)N[C@H](C(=O)N[C@@H](CC(=O)O)C(=O)N[C@H](C(=O)N[C@H]1CSSC[C@@H]2NC(=O)[C@H](CO)NC(=O)CNC(=O)[C@H]([C@@H](C)CC)NC(=O)CNC(=O)[C@H](CC(N)=O)NC(=O)[C@H](CC(N)=O)NC(=O)[C@@H]3CSSC[C@H](NC(=O)[C@H]([C@@H](C)CC)NC(=O)CNC(=O)[C@H](CC(N)=O)NC(=O)[C@H](CCCNC(=N)N)NC(=O)[C@H](CC(C)C)NC(=O)[C@H](CCCNC(=N)N)NC1=O)C(=O)N[C@@H](Cc1ccccc1)C(=O)N1CCC[C@H]1C(=O)NCC(=O)N[C@@H]([C@@H](C)CC)C(=O)N[C@@H](CSSC[C@@H](C(=O)N[C@@H](C)C(=O)N[C@@H](CCCNC(=N)N)C(=O)NCC(=O)N[C@@H](Cc1c[nH]c4ccccc14)C(=O)N[C@@H](CCCNC(=N)N)C(=O)N[C@@H](CO)C(=O)O)NC2=O)C(=O)N[C@@H](CCCNC(=N)N)C(=O)N[C@@H](CCCNC(=N)N)C(=O)N1CCC[C@H]1C(=O)N[C@@H](Cc1ccc(O)cc1)C(=O)N[C@@H](Cc1ccc(O)cc1)C(=O)N[C@@H](Cc1c[nH]c2ccccc12)C(=O)N[C@@H]([C@@H](C)CC)C(=O)NCC(=O)N[C@@H]([C@@H](C)O)C(=O)N3)[C@@H](C)O)[C@@H](C)CC` [Ile4-AvBD7], for which the “MIC (μM) Streptococcus salivarius” value in data set [6] is listed as 1.0 (± 0.5) μM. Besides, in data set [7], the “MIC (μM) Pseudomonas aeruginosa” value was 0.2 (± 0.1) μM. The “MIC (μM) Listeria monocytogenes” value in [8] was 0.2 (± 0.1) μM. The “MIC (μM) Salmonella Typhimurium” value in [9] was 1.4 (± 0.9) μM. In [3] (Table 3, mean +/- SEM), the “MIC (μM) Escherichia coli” value was 0.5 (± 0.1) μM.

Consider LFCKGGSCHFGGCPSHLIKVGSCFGFRSCCKWPWNA, for which the not cleaved result was “resistant to hydrolysis (4 h)” in the data set with Cat H; “did not cleave (4 hours)” in data set [10]; “did not cleave (4 hours)” in the data set on trypsin [11]; “did not cleave (4 hours)” in the data set on chymotrypsin [12]; “did not cleave (4 hours)” with Cat D.

Take “QPFIPRPIDTCRLRNGICFPGICRRPYYWIGTCNNGIGSCCARGWRS”: the not cleaved entry is given as “resistant to hydrolysis (4 h)” in the data set with Cat H; “did not cleave (4 hours)” in data set [10]; “fully resistant to hydrolysis (4 h)” with Cat S; “fully resistant to hydrolysis (4 h)” in the data set with Cat L; “fully resistant to hydrolysis (4 h)” in the data set on Cat B; “did not cleave (4 hours)” in the data set on trypsin [11]. Also, the not cleaved entry with chymotrypsin [12] and in the data set on Cat D was “did not cleave (4 hours)” throughout. Moreover, in the data set with Cat K, the cleaved bond result is “Phe3-Ile4”.
